# Test system: M2-like macrophages
# Assay: IL-8 secretion by M-CSF-differentiated human monocyte-derived M2-like macrophages (LEGENDplex bead-based immunoassay of supernatant)
# Assay type: cell-based
# Details: M2-like macrophages from human CD14+ monocytes
# Description: CD14+ monocytes were isolated from human PBMCs using negative magnetic bead selection (Stemcell Technologies) on day 0. Cells were cultured with M-CSF to differentiate monocytes to macrophages. On day 6, cells were treated with L-AP4 (selective group III metabotropic glutamate receptor agonist) (Sigma-Aldrich), at concentrations 1 μM and 10 μM overnight. Supernatant was collected and LEGENDplex™ bead-based immunoassays (Biolegend) were performed to detect for changes in cytokines secreted.
# Secretion of the inflammatory cytokine, IL-8, was decreased with the addition of the mGluR8 agonist in M2-like macrophages, consistent across multiple donors, as shown in Table 15 below.
compound,measurement,setting,value
NC(CCP(=O)(O)O)C(=O)O [L-AP4],Fold change of IL-8 (Normalized to M2-like Macs + LPS with no compound treatment),L-AP4 1 μM overnight,0.646 fold change
same,Fold change of IL-8 (Normalized to M2-like Macs + LPS with no compound treatment),L-AP4 10 μM overnight,0.866 fold change

# Reference: patent US11059886B1, “Methods and compositions for treating inflammatory or autoimmune diseases or conditions using GRM8 activators” (Flagship Pioneering Innovations V, Inc., priority 2018, dated 2021)
